Source: patent US20240158446A1, “CYCLIC COMPOUND HAVING SELECTIVE INHIBITORY ACTION ON KRAS OVER HRAS AND NRAS” (CHUGAI SEIYAKU KABUSHIKI KAISHA, priority 2021, published 2024)
Where a SMILES comes first, the peptide text is derived from it. Bridges are numbered along the chain shown (N, C = ends). [ ]: non-standard residue; d: D form. The star is where a group is joined. hPhe(3-Cl-4-CF3) = N[C@@H](CCc1ccc(C(F)(F)F)c(Cl)c1)C(=O)O; NPrPhe(4-CF3) = CCCN[C@@H](Cc1ccc(C(F)(F)F)cc1)C(=O)O; Piperazinyl(4-(3-oxetanyl)) = C1OCC1N1CCN(*)CC1; NMeGly(cPent) = CN[C@H](C(=O)O)C1CCCC1; NEtLeu = CCN[C@@H](CC(C)C)C(=O)O; Piperidide(4-Me) = CC1CCN(*)CC1; NMeD = CN[C@@H](CC(=O)O)C(=O)O; NMeL = CN[C@@H](CC(C)C)C(=O)O; NEtAla = CCN[C@@H](C)C(=O)O; Azetidin(1-yl) = C1CN(*)C1; Morpholide = C1CN(*)CCO1; NMeA = CN[C@@H](C)C(=O)O; Ac5c = NC1(C(=O)O)CCCC1; Aze = O=C(O)[C@@H]1CCN1; Sar = CNCC(=O)O

Columns and labels:
[1] = target: GDP-bound KRAS wild-type protein (Homo sapiens, UniProt P01116); experiment: Binding to KRAS by surface plasmon resonance (SPR), Single Cycle Kinetics; settings: SPR Single Cycle Kinetics, GDP-bound KRAS wild-type protein, 1:1 binding model; read-out: KRAS KD
[2] = target: GDP-bound NRAS wild-type protein (Homo sapiens, UniProt P01111); experiment: Binding to NRAS by surface plasmon resonance (SPR), Single Cycle Kinetics; settings: SPR, GDP-bound NRAS wild-type protein vs GDP-bound KRAS wild-type protein
[3] = target: GDP-bound HRAS wild-type protein (Homo sapiens, UniProt P01112); experiment: Binding to HRAS by surface plasmon resonance (SPR), Single Cycle Kinetics; settings: SPR, GDP-bound HRAS wild-type protein vs GDP-bound KRAS wild-type protein
GDP-bound HRAS wild-type protein, sequence (P01112 whole entry): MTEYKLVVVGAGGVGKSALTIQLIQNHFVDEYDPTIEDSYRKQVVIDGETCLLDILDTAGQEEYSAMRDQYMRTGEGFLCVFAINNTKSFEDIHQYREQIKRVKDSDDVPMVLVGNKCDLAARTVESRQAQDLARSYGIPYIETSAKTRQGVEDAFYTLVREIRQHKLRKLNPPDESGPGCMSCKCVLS

GDP-bound KRAS wild-type protein, sequence (P01116 whole entry): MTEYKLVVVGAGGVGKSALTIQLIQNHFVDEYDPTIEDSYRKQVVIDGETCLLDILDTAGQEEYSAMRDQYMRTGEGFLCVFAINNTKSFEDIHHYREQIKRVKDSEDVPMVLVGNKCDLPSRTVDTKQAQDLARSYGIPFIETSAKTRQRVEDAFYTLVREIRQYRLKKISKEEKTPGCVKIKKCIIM
GDP-bound NRAS wild-type protein, sequence (P01111 whole entry): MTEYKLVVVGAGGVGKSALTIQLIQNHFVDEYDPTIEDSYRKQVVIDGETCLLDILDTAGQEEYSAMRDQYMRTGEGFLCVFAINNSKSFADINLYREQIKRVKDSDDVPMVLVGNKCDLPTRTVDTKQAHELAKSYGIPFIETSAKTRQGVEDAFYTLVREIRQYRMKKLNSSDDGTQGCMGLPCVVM

SMILES: CCCN1C(=O)CN(C)C(=O)CN(C)C(=O)[C@H]([C@@H](C)CC)NC(=O)[C@H](CC(C)C)N(C)C(=O)C[C@@H](C(=O)N2CCOCC2)N(C)C(=O)[C@H](C2CCCC2)N(C)C(=O)[C@@H](C)NC(=O)[C@@H]2CCCN2C(=O)[C@H](CCc2ccc(C(F)(F)F)c(Cl)c2)NC(=O)CN(C)C(=O)[C@@H]1Cc1ccc(C(F)(F)F)cc1 [PP0150] ([NMeL]I[Sar][Sar][NPrPhe(4-CF3)][Sar][hPhe(3-Cl-4-CF3)]P[dA][NMeGly(cPent)][NMeD]-Morpholide; lactam N-11)
- Kd [1]: 1700 pM
- NRAS/KRAS (ratio of KD value for NRAS to KD value for KRAS) [2]: B (a compound having 3 or more and less than 10 is denoted as B)
- HRAS/KRAS (ratio of KD value for HRAS to KD value for KRAS) [3]: C (A compound having a KD ratio of 0.1 or more and less than 3 is denoted as C)

SMILES: CCCN1C(=O)[C@@H]2CCN2C(=O)[C@H](C)N(C)C(=O)[C@H]([C@@H](C)CC)NC(=O)[C@H](CC(C)C)N(CC)C(=O)C[C@@H](C(=O)N2CCOCC2)N(C)C(=O)[C@H](C2CCCC2)N(C)C(=O)C2(CCCC2)NC(=O)[C@@H]2CCCN2C(=O)[C@H](CCc2ccc(C(F)(F)F)c(Cl)c2)NC(=O)CN(C)C(=O)[C@@H]1Cc1ccc(C(F)(F)F)cc1 [PP0151] ([NEtLeu]I[NMeA][Aze][NPrPhe(4-CF3)][Sar][hPhe(3-Cl-4-CF3)]P[Ac5c][NMeGly(cPent)][NMeD]-Morpholide; lactam N-11)
- Kd [1]: 500 pM
- NRAS/KRAS (ratio of KD value for NRAS to KD value for KRAS) [2]: C (A compound having a KD ratio of 0.1 or more and less than 3 is denoted as C)
- HRAS/KRAS (ratio of KD value for HRAS to KD value for KRAS) [3]: C (A compound having a KD ratio of 0.1 or more and less than 3 is denoted as C)

SMILES: CCCN1C(=O)[C@@H]2CCN2C(=O)[C@H](C)N(CC)C(=O)[C@H]([C@@H](C)CC)NC(=O)[C@H](CC(C)C)N(C)C(=O)C[C@@H](C(=O)N2CCOCC2)N(C)C(=O)[C@H](C2CCCC2)N(C)C(=O)C2(CCCC2)NC(=O)[C@@H]2CCCN2C(=O)[C@H](CCc2ccc(C(F)(F)F)c(Cl)c2)NC(=O)CN(C)C(=O)[C@@H]1Cc1ccc(C(F)(F)F)cc1 [PP0152] ([NMeL]I[NEtAla][Aze][NPrPhe(4-CF3)][Sar][hPhe(3-Cl-4-CF3)]P[Ac5c][NMeGly(cPent)][NMeD]-Morpholide; lactam N-11)
- Kd [1]: 2800 pM
- NRAS/KRAS (ratio of KD value for NRAS to KD value for KRAS) [2]: C (A compound having a KD ratio of 0.1 or more and less than 3 is denoted as C)
- HRAS/KRAS (ratio of KD value for HRAS to KD value for KRAS) [3]: B (a compound having 3 or more and less than 10 is denoted as B)

SMILES: CCCN1C(=O)[C@@H]2CCN2C(=O)[C@H](C)N(C)C(=O)[C@H]([C@@H](C)CC)NC(=O)[C@H](CC(C)C)N(C)C(=O)C[C@@H](C(=O)N2CCOCC2)N(C)C(=O)[C@H](C2CCCC2)N(C)C(=O)C2(CCCC2)NC(=O)[C@H](C)NC(=O)[C@H](CCc2ccc(C(F)(F)F)c(Cl)c2)NC(=O)CN(C)C(=O)[C@@H]1Cc1ccc(C(F)(F)F)cc1 [PP0153] ([NMeL]I[NMeA][Aze][NPrPhe(4-CF3)][Sar][hPhe(3-Cl-4-CF3)]A[Ac5c][NMeGly(cPent)][NMeD]-Morpholide; lactam N-11)
- Kd [1]: 330 pM
- NRAS/KRAS (ratio of KD value for NRAS to KD value for KRAS) [2]: C (A compound having a KD ratio of 0.1 or more and less than 3 is denoted as C)
- HRAS/KRAS (ratio of KD value for HRAS to KD value for KRAS) [3]: C (A compound having a KD ratio of 0.1 or more and less than 3 is denoted as C)

SMILES: CCCN1C(=O)[C@@H]2CCN2C(=O)[C@H](C)N(C)C(=O)[C@H]([C@@H](C)CC)NC(=O)[C@H](CC(C)C)NC(=O)C[C@@H](C(=O)N2CCOCC2)N(C)C(=O)[C@H](C2CCCC2)N(C)C(=O)C2(CCCC2)NC(=O)[C@@H]2CCCN2C(=O)[C@H](CCc2ccc(C(F)(F)F)c(Cl)c2)NC(=O)CN(C)C(=O)[C@@H]1Cc1ccc(C(F)(F)F)cc1 [PP0154] (LI[NMeA][Aze][NPrPhe(4-CF3)][Sar][hPhe(3-Cl-4-CF3)]P[Ac5c][NMeGly(cPent)][NMeD]-Morpholide; lactam N-11)
- Kd [1]: 230 pM
- NRAS/KRAS (ratio of KD value for NRAS to KD value for KRAS) [2]: C (A compound having a KD ratio of 0.1 or more and less than 3 is denoted as C)
- HRAS/KRAS (ratio of KD value for HRAS to KD value for KRAS) [3]: B (a compound having 3 or more and less than 10 is denoted as B)

SMILES: CCCN1C(=O)CN(C)C(=O)CNC(=O)[C@H]([C@@H](C)CC)NC(=O)[C@H](CC(C)C)N(C)C(=O)C[C@@H](C(=O)N2CCOCC2)N(C)C(=O)[C@H](C2CCCC2)N(C)C(=O)C2(CCCC2)NC(=O)[C@@H]2CCCN2C(=O)[C@H](CCc2ccc(C(F)(F)F)c(Cl)c2)NC(=O)CN(C)C(=O)[C@@H]1Cc1ccc(C(F)(F)F)cc1 [PP0155] ([NMeL]IG[Sar][NPrPhe(4-CF3)][Sar][hPhe(3-Cl-4-CF3)]P[Ac5c][NMeGly(cPent)][NMeD]-Morpholide; lactam N-11)
- Kd [1]: 180 pM
- NRAS/KRAS (ratio of KD value for NRAS to KD value for KRAS) [2]: B (a compound having 3 or more and less than 10 is denoted as B)
- HRAS/KRAS (ratio of KD value for HRAS to KD value for KRAS) [3]: C (A compound having a KD ratio of 0.1 or more and less than 3 is denoted as C)

SMILES: CCCN1C(=O)[C@@H]2CCN2C(=O)CN(C)C(=O)[C@H]([C@@H](C)CC)NC(=O)[C@H](CC(C)C)N(C)C(=O)C[C@@H](C(=O)N2CCOCC2)N(C)C(=O)[C@H](C2CCCC2)N(C)C(=O)C2(CCCC2)NC(=O)[C@@H]2CCCN2C(=O)[C@H](CCc2ccc(C(F)(F)F)c(Cl)c2)NC(=O)CN(C)C(=O)[C@@H]1Cc1ccc(C(F)(F)F)cc1 [PP0156] ([NMeL]I[Sar][Aze][NPrPhe(4-CF3)][Sar][hPhe(3-Cl-4-CF3)]P[Ac5c][NMeGly(cPent)][NMeD]-Morpholide; lactam N-11)
- Kd [1]: 120 pM
- NRAS/KRAS (ratio of KD value for NRAS to KD value for KRAS) [2]: C (A compound having a KD ratio of 0.1 or more and less than 3 is denoted as C)
- HRAS/KRAS (ratio of KD value for HRAS to KD value for KRAS) [3]: B (a compound having 3 or more and less than 10 is denoted as B)

SMILES: CCCN1C(=O)CN(C)C(=O)[C@@H]2CCCN2C(=O)[C@H]([C@@H](C)CC)NC(=O)[C@H](CC(C)C)N(C)C(=O)C[C@@H](C(=O)N2CCOCC2)N(C)C(=O)[C@H](C2CCCC2)N(C)C(=O)C2(CCCC2)NC(=O)[C@@H]2CCCN2C(=O)[C@H](CCc2ccc(C(F)(F)F)c(Cl)c2)NC(=O)CN(C)C(=O)[C@@H]1Cc1ccc(C(F)(F)F)cc1 [PP0165] ([NMeL]IP[Sar][NPrPhe(4-CF3)][Sar][hPhe(3-Cl-4-CF3)]P[Ac5c][NMeGly(cPent)][NMeD]-Morpholide; lactam N-11)
- Kd [1]: 2900 pM
- NRAS/KRAS (ratio of KD value for NRAS to KD value for KRAS) [2]: B (a compound having 3 or more and less than 10 is denoted as B)
- HRAS/KRAS (ratio of KD value for HRAS to KD value for KRAS) [3]: B (a compound having 3 or more and less than 10 is denoted as B)

SMILES: CCCN1C(=O)CN(C)C(=O)CN(C)C(=O)[C@H]([C@@H](C)CC)NC(=O)[C@H](CC(C)C)N(C)C(=O)C[C@@H](C(=O)N(C)C)N(C)C(=O)[C@H](C2CCCC2)N(C)C(=O)C2(CCCC2)NC(=O)[C@@H]2CCCN2C(=O)[C@H](CCc2ccc(C(F)(F)F)c(Cl)c2)NC(=O)CN(C)C(=O)[C@@H]1Cc1ccc(C(F)(F)F)cc1 [PP0169] ([NMeL]I[Sar][Sar][NPrPhe(4-CF3)][Sar][hPhe(3-Cl-4-CF3)]P[Ac5c][NMeGly(cPent)][NMeD]-NMe2; lactam N-11)
- Kd [1]: 35 pM
- NRAS/KRAS (ratio of KD value for NRAS to KD value for KRAS) [2]: B (a compound having 3 or more and less than 10 is denoted as B)
- HRAS/KRAS (ratio of KD value for HRAS to KD value for KRAS) [3]: B (a compound having 3 or more and less than 10 is denoted as B)

SMILES: CCCN1C(=O)CN(C)C(=O)CN(C)C(=O)[C@H]([C@@H](C)CC)NC(=O)[C@H](CC(C)C)N(C)C(=O)C[C@@H](C(=O)N2CCC2)N(C)C(=O)[C@H](C2CCCC2)N(C)C(=O)C2(CCCC2)NC(=O)[C@@H]2CCCN2C(=O)[C@H](CCc2ccc(C(F)(F)F)c(Cl)c2)NC(=O)CN(C)C(=O)[C@@H]1Cc1ccc(C(F)(F)F)cc1 [PP0172] ([NMeL]I[Sar][Sar][NPrPhe(4-CF3)][Sar][hPhe(3-Cl-4-CF3)]P[Ac5c][NMeGly(cPent)][NMeD]-{Azetidin(1-yl)}; lactam N-11)
- Kd [1]: 130 pM
- NRAS/KRAS (ratio of KD value for NRAS to KD value for KRAS) [2]: B (a compound having 3 or more and less than 10 is denoted as B)
- HRAS/KRAS (ratio of KD value for HRAS to KD value for KRAS) [3]: C (A compound having a KD ratio of 0.1 or more and less than 3 is denoted as C)

SMILES: CCCN1C(=O)CN(C)C(=O)CN(C)C(=O)[C@H]([C@@H](C)CC)NC(=O)[C@H](CC(C)C)N(C)C(=O)C[C@@H](C(=O)N2CCN(C3COC3)CC2)N(C)C(=O)[C@H](C2CCCC2)N(C)C(=O)C2(CCCC2)NC(=O)[C@@H]2CCCN2C(=O)[C@H](CCc2ccc(C(F)(F)F)c(Cl)c2)NC(=O)CN(C)C(=O)[C@@H]1Cc1ccc(C(F)(F)F)cc1 [PP0175] ([NMeL]I[Sar][Sar][NPrPhe(4-CF3)][Sar][hPhe(3-Cl-4-CF3)]P[Ac5c][NMeGly(cPent)][NMeD]-{Piperazinyl(4-(3-oxetanyl))}; lactam N-11)
- Kd [1]: 350 pM
- NRAS/KRAS (ratio of KD value for NRAS to KD value for KRAS) [2]: B (a compound having 3 or more and less than 10 is denoted as B)
- HRAS/KRAS (ratio of KD value for HRAS to KD value for KRAS) [3]: B (a compound having 3 or more and less than 10 is denoted as B)

SMILES: CCCN1C(=O)CN(C)C(=O)CN(C)C(=O)[C@H]([C@@H](C)CC)NC(=O)[C@H](CC(C)C)N(C)C(=O)C[C@@H](C(=O)N2CCC(C)CC2)N(C)C(=O)[C@H](C2CCCC2)N(C)C(=O)C2(CCCC2)NC(=O)[C@@H]2CCCN2C(=O)[C@H](CCc2ccc(C(F)(F)F)c(Cl)c2)NC(=O)CN(C)C(=O)[C@@H]1Cc1ccc(C(F)(F)F)cc1 [PP0176] ([NMeL]I[Sar][Sar][NPrPhe(4-CF3)][Sar][hPhe(3-Cl-4-CF3)]P[Ac5c][NMeGly(cPent)][NMeD]-{Piperidide(4-Me)}; lactam N-11)
- Kd [1]: 550 pM
- NRAS/KRAS (ratio of KD value for NRAS to KD value for KRAS) [2]: B (a compound having 3 or more and less than 10 is denoted as B)
- HRAS/KRAS (ratio of KD value for HRAS to KD value for KRAS) [3]: C (A compound having a KD ratio of 0.1 or more and less than 3 is denoted as C)
